According to US20240199964A1, “COMPOUNDS FOR MARKING LIQUIDS” (KUANTAG NANOTEKNOLOJILER GELISTIRME VE URETIM A.S., priority 2022, published 2024):

Assays:
Assay type in all cases: physicochemical
[1] = fluorescence emission spectroscopy of marker in xylene solution; settings: for Em. max. (estimated): not experimental, estimated based on the values of formulas (II) and (III); for Em. max.: xylene solution having 0.5 ppm marker material, excitation 543 nm for (II), 551 nm for (III), experimental
From the text: (§1) Chemical structures of other examples of anthrapyridone marker compounds derived based on the general formula (I) may be seen below. […] Table 1 identifies side groups of each anthrapyridone compound based on the general formula (I) and their absorption and emission characteristics. In Table 1, only the absorbance maximum and emission maximum values for the anthrapyridone compound markers with formula (II) and formula (III) are experimental. In the spectroscopic measurements, each test sample includes a xylene solution having 0.5 ppm marker material. For emission measurements 543 and 551 nm excitation wavelength are used, respectively. The absorbance maximum and emission maximum values of the formulas (IV)-(X) are not experimental values. These values are estimated values based on the values of the formulas (II) and (III).

[2] = absorbance spectroscopy of marker in xylene solution; settings: for Ab. max. (estimated): not experimental, estimated based on the values of formulas (II) and (III); for Ab. max.: xylene solution having 0.5 ppm marker material, experimental
From the text: as §1

[3] = absorbance spectrum (UV-Vis) of marker in diesel fuel, FIG. 2A; settings: diesel solution, about 0.5 ppm marker material
From the text: FIG. 2A is a graph of an absorbance spectrum 10A of the marker material (the anthrapyridone compound of formula (III)) in diesel fuel. The absorbance spectrum 10A includes two absorbance maximums 11A and 11B at about 520 nm and about 550 nm wavelength values of the visible radiation range, respectively. A diesel solution having about 0.5 ppm marker material concentration may be used as a test sample for this spectral analysis. The absorbance spectroscopy instrument may be any type of absorbance spectroscopy instrument that is able to take absorbance spectrum in visible radiation region, i.e., 400-600 nm.
The absorbance spectrum shown in FIG. 2A is taken by a UV-Vis Spectroscopy instrument from Thermo Scientific Co in a test range of about 400-650 nm. The fluorescence spectrum shown in FIG. 2B is taken by a fluorescence spectroscopy instrument from Edinburgh Co.

SMILES | Em. max. (estimated) [1] | Ab. max. (estimated) [2] | Em. max. [1] | absorbance maximum 11A [3] | absorbance maximum 11B [3] | Ab. max. [2] [nm]
Cn1c(=O)cc2c3c(c(NCc4ccccc4)ccc31)C(=O)c1ccccc1-2 [formula (IV), Solvent Red 150] | 575-600 nm | 540-560 nm |  |  |  | 
CCCCC(CC)CNc1ccc2c3c(cc(=O)n2C)-c2ccccc2C(=O)c13 (centres unmarked) [formula (VII)] | 575-600 nm | 540-560 nm |  |  |  | 
Cn1c(=O)cc2c3c(c(NC4CCCCC4)ccc31)C(=O)c1ccccc1-2 [formula (III), Solvent Red 149] |  |  | 580 nm | about 520 nm | about 550 nm | 551
O=C1c2ccccc2-c2cc(=O)n(C3CCCCC3)c3ccc(NC4CCCCC4)c1c23 [formula (VIII)] | 575-600 nm | 540-560 nm |  |  |  | 
CNc1ccc2c3c(cc(=O)n2C)-c2ccccc2C(=O)c13 [formula (V)] | 575-600 nm | 540-560 nm |  |  |  | 
O=C1c2ccccc2-c2cc(=O)n(Cc3ccccc3)c3ccc(NCc4ccccc4)c1c23 [formula (X)] | 575-600 nm | 540-560 nm |  |  |  | 
CCCCC(CC)CNc1ccc2c3c(cc(=O)n2CC(CC)CCCC)-c2ccccc2C(=O)c13 (centres unmarked) [formula (VI)] | 575-600 nm | 540-560 nm |  |  |  | 
Cc1ccc(Nc2ccc3c4c(cc(=O)n3C)-c3ccccc3C(=O)c24)cc1 [formula (II), Solvent Red 52] |  |  | no emission |  |  | 543
CCCCCCCCCCCNc1ccc2c3c(cc(=O)n2C)-c2ccccc2C(=O)c13 [formula (IX)] | 575-600 nm | 540-560 nm |  |  |  | 
